Results published in US8168619B1, “Hormonal composition based on a progestational agent and an oestrogen and use thereof” (Laboratoire Theramex, priority 1999, dated 2012).
Where two headings read alike, the source gives them in different places.

Experiments:
[1] = NEUMANN publication; cited from earlier work
ovulation [2] = assay: Dose inhibiting ovulation (literature); type: in vivo; details: NEUMANN; reference progestative norgestrel (=1)
Text: (§1) 2) Apart from the above, it would be reasonable to think that the doses claimed should be based on data from clinical pharmacology and/or clinical data previously published and commonly accepted. Now, if the doses defined as in the PLUNKETT patents are considered, it is easy to see that in most cases the active doses published already a long time ago, i.e. before the said patents were filed (NEUMANN, 1977) or more recently (KUHL, 1996), are very coherent but only rarely lie within the dose ranges claimed in the patents in the name of PLUNKETT (Table 2).

[3] = Dose having a contraceptive effect (literature); type: in vivo; details: NEUMANN; reference progestative norgestrel (=1)
Text: as §1

endometrium [4] = details: cited from earlier work
ovulation [5] = details: cited from earlier work
menopausal women = assay: Sequential estrogen-progestative therapy: interval before periods after therapy is interrupted; type: in vivo; details: Day 13-22, with 30 μg ethinyl estradiol
Method: (§2) Menopausal women, whether naturally or as the result of surgery, were subjected to a sequential estrogen-progestative therapy. From Day 1 to Day 12 they received 30 μg of ethinyl estradiol and then, from Day 13 to Day 22, the same dose of ethinyl estradiol associated with different doses of nomegestrol acetate or chlormadinone acetate. The doses were as follows:
(§3) The number of women was between 2 and 11, depending on the group. There was then a therapeutic pause of 7 days followed by a second treatment cycle.
(§4) The parameters taken into account were as follows: • the interval before periods commenced after the therapy had been interrupted, following the first and second treatment cycles; • the histological appearance of the endometrium recovered in a biopsy carried out between Day 17 and Day 20 of the second cycle.

endometrial cells = assay: Sequential estrogen-progestative therapy: histological appearance of endometrium biopsy; type: in vivo, women; details: for Number of mitoses (% of section in which mitoses were present), Glands: with 30 μg ethinyl estradiol, biopsy Day 17-20 of second cycle
Method: as §2, §3, §4

endometrium [6] = assay: Dose inducing transformation of the endometrium (literature); type: in vivo; details: NEUMANN; reference progestative norgestrel (=1)
Text: as §1

[7] = NEUMANN publication; cited from earlier work; remark: listed apart in the source

## CC(=O)O[C@]1(C(C)=O)CC[C@H]2[C@@H]3C=C(Cl)C4=CC(=O)[C@@H]5C[C@@H]5[C@]4(C)[C@H]3CC[C@@]21C [CIP acetate, Cyproterone acetate]
[1]
  Dose necessary to have a contraceptive effect (4): 2000 µg/day
Ovulation [2]
  Dose ratio, Ovulation (3): 10.0
[3]
  Dose ratio, Contraception (4): 8.0
Endometrium [4]; KUHL
  Dose necessary to induce transformation of the endometrium (1): 2000 µg/day
Endometrium [4]; NEUMANN publication
  Dose necessary to induce transformation of the endometrium (1): 1000 µg/day
Ovulation [5]; KUHL
  Dose necessary to inhibit ovulation (3): 1000 µg/day
Ovulation [5]; NEUMANN publication
  Dose necessary to inhibit ovulation (3): 1000 µg/day

## CC(=O)O[C@]1(C(C)=O)CC[C@H]2[C@@H]3C=C(Cl)C4=CC(=O)CC[C@]4(C)[C@H]3CC[C@@]21C [Chlormadinone acetate, chlormadinone acetate]
Menopausal women; 0.1 mg/day
  Interval before the appearance of periods after the therapy is discontinued: -2.3 ± 0.5 days
Menopausal women; 0.5 mg/day
  Interval before the appearance of periods after the therapy is discontinued: 2.0 ± 0.6 days
Menopausal women; 1.0 mg/day
  Interval before the appearance of periods after the therapy is discontinued: 3.8 ± 0.3 days
Menopausal women; 2.0 mg/day
  Interval before the appearance of periods after the therapy is discontinued: 3.8 ± 0.3 days
Menopausal women; 5 mg/day
  Interval before the appearance of periods after the therapy is discontinued: 5.5 ± 1.5 days
Menopausal women; 10 mg/day
  Interval before the appearance of periods after the therapy is discontinued: 5.5 ± 0.5 days
Endometrial cells; 0.1 mg/day
  Number of mitoses (% of section in which mitoses were present), Glands: 90%
Endometrial cells; 1 mg/day, sequential therapy with 30 μg ethinyl estradiol
  Mitosis in glandular cells: mitosis is still evident
Endometrial cells; 1 mg/day
  Number of mitoses (% of section in which mitoses were present), Glands: 50%
Endometrial cells; 2 mg/day
  Number of mitoses (% of section in which mitoses were present), Glands: 0%
Endometrial cells; 5 mg/day
  Number of mitoses (% of section in which mitoses were present), Glands: 0%
Endometrial cells; 10 mg/day
  Number of mitoses (% of section in which mitoses were present), Glands: 0%

## C#C[C@]1(O)CC[C@H]2[C@@H]3CCC4=CCCC[C@@H]4[C@H]3CC[C@@]21C [Lynoestrenol]
[1]
  Dose necessary to have a contraceptive effect (4): 2500 µg/day
Endometrium [6]
  Dose ratio, Endometrium (1): 4.2
[3]
  Dose ratio, Contraception (4): 10.0
Endometrium [4]; NEUMANN publication
  Dose necessary to induce transformation of the endometrium (1): 5000 µg/day

## CC(=O)O[C@]1(C(C)=O)CC[C@H]2[C@@H]3C[C@H](C)C4=CC(=O)CC[C@]4(C)[C@H]3CC[C@@]21C [MPA, medroxyprogesterone acetate]
[1]
  Dose necessary to have a contraceptive effect (4): 5000 µg/day
[7]
  Dose necessary to produce an adequate delay in the onset of periods (2), Menstruation: 25000 µg/day
[3]
  Dose ratio, Contraception (4): 20.0
Endometrium [4]; NEUMANN publication
  Dose necessary to induce transformation of the endometrium (1): 5500 µg/day

## C#C[C@]1(OC(C)=O)CC[C@H]2[C@@H]3CCC4=CC(=O)CC[C@@H]4[C@H]3CC[C@@]21C [Norethisterone acetate]
[1]
  Dose necessary to have a contraceptive effect (4): 1000 µg/day
Endometrium [6]
  Dose ratio, Endometrium (1): 3.8
[3]
  Dose ratio, Contraception (4): 4.0
Endometrium [4]; NEUMANN publication
  Dose necessary to induce transformation of the endometrium (1): 4500 µg/day
Ovulation [5]; NEUMANN publication
  Dose necessary to inhibit ovulation (3): 800 µg/day

## C#C[C@]1(O)CC[C@H]2[C@@H]3CCC4=CC(=O)CC[C@@H]4[C@H]3CC[C@@]21C [Norethisterone]
[1]
  Dose necessary to have a contraceptive effect (4): 1000 µg/day
[7]
  Dose necessary to produce an adequate delay in the onset of periods (2), Menstruation: 5000 µg/day
[3]
  Dose ratio, Contraception (4): 4.0
Endometrium [4]; KUHL
  Dose necessary to induce transformation of the endometrium (1): 10000 µg/day
Endometrium [4]; NEUMANN publication
  Dose necessary to induce transformation of the endometrium (1): 12500 µg/day
Ovulation [5]; KUHL
  Dose necessary to inhibit ovulation (3): 400 µg/day
Ovulation [5]; NEUMANN publication
  Dose necessary to inhibit ovulation (3): 800 µg/day

## C#C[C@]1(O)CC[C@H]2[C@@H]3CCC4=C(CCC(=O)C4)[C@H]3CC[C@@]21C [Norethynodrel]
[1]
  Dose necessary to have a contraceptive effect (4): 2500 µg/day
Endometrium [6]
  Dose ratio, Endometrium (1): 8.3
[7]
  Dose necessary to produce an adequate delay in the onset of periods (2), Menstruation: 7500 µg/day
[3]
  Dose ratio, Contraception (4): 10.0
Endometrium [4]; NEUMANN publication
  Dose necessary to induce transformation of the endometrium (1): 10000 µg/day
Ovulation [5]; NEUMANN publication
  Dose necessary to inhibit ovulation (3): 6000 µg/day
